Measured values reported in PMC3625590, “NBM-T-L-BMX-OS01, Semisynthesized from Osthole, Is a Novel Inhibitor of Histone Deacetylase and Enhances Learning and Memory in Rats” (Evidence-based Complementary and Alternative Medicine : eCAM, 2013).
Structures can show the parent of a compound that is named as a salt.

Experiments:
[1] = test system: Sco-induced amnesia rats; assay: Novel object recognition, Sco-induced memory impairment; format: in vivo, Sprague-Dawley rats; settings: Sco 1.5 mg/kg/d; BMX or SAHA 5 mg/kg/d i.p.; 8 h
Procedure: SAHA was supplied by NatureWise Biotech and Medicals Corporation (Taipei, Taiwan). […] (St. Louis, MO, USA). The BMX and SAHA stock (100 mg/mL) was dissolved in DMSO and diluted with saline to a final concentration of 0.5 mg/mL (in 0.5% DMSO/saline). […] SD rats were randomly divided into 3 groups. For the naïve animal experiments, the BMX-injected or SAHA-injected groups were injected with BMX (5 mg/kg/d) or SAHA (5 mg/kg/d) intraperitoneally 7 d prior to behavioral experiments and during the experimentation. The control group received the 0.5% DMSO/saline injection. The injection volume was 10 μL/g of body weight. The injections were performed once per day. For the amnesia experiment, the protocol was adopted from previous studies with modifications. […] The control group received the 0.5% DMSO/saline injection. The injection volume was 10 μL/g of body weight. […] The method used was adopted from that of a previous study with modifications. During familiarization, rats were allowed to explore 2 identical objects in an open field box (90 × 70 × 60 cm) for 5 min. The criteria used for exploration were a distance less than 1.5 cm between the rat and the object or direct contact with the object. […] The time that each rat spent exploring the 2 objects during a 5 min period was recorded. […]

[2] = test system: Sco-induced amnesia rats; assay: Water-maze learning, Sco-induced memory impairment; format: in vivo, Sprague-Dawley rats; settings: Sco 1.5 mg/kg/d; BMX or SAHA 5 mg/kg/d i.p.
Procedure: SAHA was supplied by NatureWise Biotech and Medicals Corporation (Taipei, Taiwan). […] (St. Louis, MO, USA). The BMX and SAHA stock (100 mg/mL) was dissolved in DMSO and diluted with saline to a final concentration of 0.5 mg/mL (in 0.5% DMSO/saline). […] SD rats were randomly divided into 3 groups. For the naïve animal experiments, the BMX-injected or SAHA-injected groups were injected with BMX (5 mg/kg/d) or SAHA (5 mg/kg/d) intraperitoneally 7 d prior to behavioral experiments and during the experimentation. The control group received the 0.5% DMSO/saline injection. The injection volume was 10 μL/g of body weight. The injections were performed once per day. For the amnesia experiment, the protocol was adopted from previous studies with modifications. […] The control group received the 0.5% DMSO/saline injection. The injection volume was 10 μL/g of body weight. […] The method was adopted from that of a previous study with modifications. A plastic circular pool 2.0 m in diameter and 0.6 m in height was filled with water (25 ± 2°C) to a depth of 20 cm. A circular platform (8 cm in diameter) was placed at a specific location from the edge of the pool and submerged 2-3 cm below the water surface. Water was made cloudy by adding toxic-free dye. Distinctive visual cues were set on the wall. For spatial learning, animals were subjected to 3 trials per day, with one trial early in the morning, one trial at noon, and another in the late afternoon. The training procedure lasted 4 days, and a total of 12 trials were given. This procedure was adopted because spaced training is a better paradigm to facilitate memory consolidation. For these trials, the rats were positioned at different starting points spaced equally around the perimeter of the pool in random order. They had 120 s to find the hidden platform. If a rat could not find the platform, it was guided to the platform and was allowed to remain there for 20 s. The time each animal took to reach the platform was recorded as the escape latency. A probe trial of 120 s was given on day 5 to test their memory retention. The rats were placed in the pool with the platform removed, and the time they spent in each quadrant (Quadrants 1, 2, 3, and 4) was recorded. Quadrant 4 is the target quadrant. For the trained and swimming control experiments, rats in the trained group were subjected to the regular water maze learning procedure. At the end of the experiment, the rats were subjected to visible platform learning. For visible platform learning, a flag was mounted on the platform, and the platform was raised 2.5 cm above the surface of the water. In addition, the dye had not been added, so that the animals could see the location of the platform from the water. […]

For `CN1[C@@H]2C[C@@H](OC(=O)[C@H](CO)c3ccccc3)C[C@H]1[C@@H]1O[C@@H]12` [Sco, Scopolamine hydrochloride], which “exploratory preference for the novel object (NO)” value [1] is on record?
Its value is “showed no exploratory preference for the NO”.

And the “escape latency in finding the hidden platform” value [2]?
Its value is “showed longer escape latency”.

What about the “probe trial, time spent in target quadrant” value [2] of the same compound?
Its value is “spent less time in the quadrant where the platform had been placed”.
